Experimental data as given in patent publication US12359238B2 (priority 2017, dated 2025).

Experiments:
[1] = target: T1, FGM (FAD-GDH-MCD): Burkholderia cepacia FAD-GDH alpha subunit fused to minimal cytochrome domain MCR-2 of MamP (magnetoovoid bacterium MO-127), full DNA constru (Burkholderia lata, UniProt Q397F4); format: biochemical
T1 construct: gamma co-expressed; E. coli BL21

[2] = target: GDH-S247PDAz: Burkholderia cepacia FAD-GDH variant S247PrK lacking the MCD domain, clicked to PDAz linker (Burkholderia lata, UniProt Q397F4); conditions: read-out: KM^app (electrochemical); glucose; 300 mV vs. Ag/AgCl, 100 mM acetate buffer pH=5.0, RT; non-linear fit
Experimental: (§1) The current from each glucose concentration (10 μM-10 mM) was measured in triplicates; curves of the mean currents are presented with standard deviations. […] The current was measured in triplicates and the mean current values were used for the linear regression and are presented with error bars (FIG. 18H);
(§2) Pyrrolysyl orthogonal translation system (pylOTS) DNA sequence was amplified from the pEVOL plasmid using polymerase chain reaction (PCR) and cloned into the backbone of pec86 plasmid using Gibson's assembly to generate a new plasmid called pec86-pylOTS (FIG. 15A). pylOTS allows the continuous expression of an orthogonal translation system (orthogonal tRNA and aminoacyl tRNA synthetase) for incorporation of PrK (1) using the amber (TAG) stop codon suppression, while the pec86 plasmid is responsible for the continuous expression of E. coli cytochrome c maturation system. […] Four different TAG mutants were planned using site-directed mutagenesis, according to GDH crystal structure. Our guiding rational for mutation sites was to control the enzyme orientation in a manner that will allow proximity of 14 Å or less between the FAD or heme site and the electrode, without interference with the protein structure and correct folding. The sites that were tested were R42TAG and S247TAG, which are in close proximity to the FAD binding-site, while T558TAG (FIG. 11C, right panel) is in a close proximity to the heme domain.
(§3) The azide in (2) was clicked to the alkyne residue of (FIG. 11B, 1). 3 μM of protein sample was mixed with 400 μM (2), 2 mM tris pH=8.2, 10 mM KCl, 1 mM Cu(I), 1.2 mM THPTA, 2.5 mM NaAsc and 10% Dimethyl sulfoxide (DMSO). The reaction was incubated for 1 h in the dark at room temperature with shaking, then transferred to 4° C. for two days before use.

[3] = tested on: FGM-T558PDAz: FGM (Burkholderia cepacia FAD-GDH-MCD) variant T558PrK (T558X, SEQ ID NO: 22), clicked to PDAz linker; conditions: read-out: KM^app (electrochemical); glucose; 300 mV vs. Ag/AgCl, 100 mM acetate buffer pH=5.0, RT; non-linear fit
Experimental: as §1, §2, §3

[4] = target: FGM-S247PDAz: FGM (Burkholderia cepacia FAD-GDH-MCD) variant S247PrK (S247X, SEQ ID NO: 20), clicked to PDAz linker (Burkholderia lata, UniProt Q397F4); conditions: read-out: KM^app (electrochemical); glucose; 300 mV vs. Ag/AgCl, 100 mM acetate buffer pH=5.0, RT; non-linear fit
Experimental: as §1, §2, §3

[5] = target: FGM-S247PCA: FGM (Burkholderia cepacia FAD-GDH-MCD) variant S247PrK (S247X, SEQ ID NO: 20), EDC-NHS coupled to PCA linker (Burkholderia lata, UniProt Q397F4); conditions: read-out: KM^app (electrochemical); glucose; 300 mV vs. Ag/AgCl, 100 mM acetate buffer pH=5.0, RT; non-linear fit
Experimental: as §1, §2, §3

OC[C@H]1OC(O)[C@H](O)[C@@H](O)[C@@H]1O (stereo partly drawn) [glucose]
KM^app value times higher for FGM compared to GDH [1]: ca. 3 times | catalytic efficiency (k) times higher compared to GDH ([1]; FGM compared to GDH, D-glucose): more than 3 times | Km [2]: 1550 ± 160 µM | Km [3]: 1580 ± 220 µM | Km [4]: 1890 ± 100 µM | Km [5]: 1820 ± 180 µM
